Test results taken from BindingDB's records for doi:10.3109/14756366.2010.548329 (Sun Yat-sen University, 2011).

Tests used:
[1] = target: Acetylcholinesterase (Electrophorus electricus, UniProt O42275); assay: Enzyme Inhibition Assay; conditions: pH 8; 37 °C
Experimental: (§1) Enzyme solutions were prepared to give 2.0 units/mL in 2 mL aliquots. The assay medium contained phosphate buffer, pH 8.0 (1 mL), 50 μL of 0.01 M DTNB, 10 μL of enzyme, and 50 μL of 0.01 M substrate (ATC). The substrate was added to the assay medium containing enzyme, buffer, and DTNB with inhibitor after 15 min of incubation time. […] In vitro BuChE assay use the similar method described above.

[2] = target: Cholinesterase (Equus caballus, UniProt P81908); assay: Enzyme Inhibition Assay; conditions: pH 8; 37 °C
Experimental: as §1

Sequence of Acetylcholinesterase (O42275 whole entry): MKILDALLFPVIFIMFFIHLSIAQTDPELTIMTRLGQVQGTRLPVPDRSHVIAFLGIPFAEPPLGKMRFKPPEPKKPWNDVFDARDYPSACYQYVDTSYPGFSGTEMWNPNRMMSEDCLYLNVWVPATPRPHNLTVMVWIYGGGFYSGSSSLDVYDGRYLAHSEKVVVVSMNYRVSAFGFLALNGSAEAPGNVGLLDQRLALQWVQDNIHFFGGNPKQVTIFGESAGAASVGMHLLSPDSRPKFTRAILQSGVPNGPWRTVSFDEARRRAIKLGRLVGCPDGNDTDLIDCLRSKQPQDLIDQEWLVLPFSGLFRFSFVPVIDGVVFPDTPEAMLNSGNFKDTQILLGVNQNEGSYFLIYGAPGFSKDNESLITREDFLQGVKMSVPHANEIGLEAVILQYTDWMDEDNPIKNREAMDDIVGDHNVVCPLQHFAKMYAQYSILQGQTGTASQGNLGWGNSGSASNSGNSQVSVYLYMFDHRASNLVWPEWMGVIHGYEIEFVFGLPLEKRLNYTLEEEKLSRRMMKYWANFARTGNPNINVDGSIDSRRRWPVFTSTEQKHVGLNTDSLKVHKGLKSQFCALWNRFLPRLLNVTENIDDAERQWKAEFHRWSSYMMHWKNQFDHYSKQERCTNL
Sequence of Cholinesterase (P81908 whole entry): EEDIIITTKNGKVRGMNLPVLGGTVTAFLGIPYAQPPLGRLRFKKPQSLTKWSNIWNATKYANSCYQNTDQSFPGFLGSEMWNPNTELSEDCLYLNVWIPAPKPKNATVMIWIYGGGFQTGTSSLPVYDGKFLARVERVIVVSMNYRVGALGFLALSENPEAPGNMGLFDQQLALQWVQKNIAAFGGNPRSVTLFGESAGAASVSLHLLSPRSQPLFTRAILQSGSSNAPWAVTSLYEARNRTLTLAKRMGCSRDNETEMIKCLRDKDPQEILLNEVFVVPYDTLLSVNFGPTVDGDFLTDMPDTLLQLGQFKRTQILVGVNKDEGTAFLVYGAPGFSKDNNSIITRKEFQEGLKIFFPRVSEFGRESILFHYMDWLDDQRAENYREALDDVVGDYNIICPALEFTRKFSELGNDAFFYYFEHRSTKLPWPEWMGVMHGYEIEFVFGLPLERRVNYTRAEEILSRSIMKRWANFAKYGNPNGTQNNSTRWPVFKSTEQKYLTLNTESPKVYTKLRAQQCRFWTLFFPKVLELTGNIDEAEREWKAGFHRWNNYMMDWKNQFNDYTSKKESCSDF

COc1cc(CNCCCCCCCCNCc2cc(OC)c3c(c2)OCO3)cc2c1OCO2 [N1, N8-bis((7-methoxybenzo[d][1,3]dioxol-5-yl)methyl)octane-1,8-diamine (5f)]
IC50 [1]: 2.79 µM
IC50 [2]: 3.11 µM

COc1cc(CNCCCNCc2cc(OC)c3c(c2)OCO3)cc2c1OCO2 [N1,N3-bis((7-methoxybenzo[d][1,3]dioxol-5-yl)methyl)propane-1,3-diamine (5a)]
IC50 [1]: > 125 µM
IC50 [2]: 52.3 µM

COc1cc(CNCCCCNCc2cc(OC)c3c(c2)OCO3)cc2c1OCO2 [N1,N4-bis((7-methoxybenzo[d][1,3]dioxol-5-yl)methyl)butane-1,4-diamine (5b)]
IC50 [1]: 120 µM
IC50 [2]: 12.1 µM

COc1cc(CNCCCCCNCc2cc(OC)c3c(c2)OCO3)cc2c1OCO2 [N1,N5-bis((7-methoxybenzo[d][1,3]dioxol-5-yl)methyl)pentane-1,5-diamine (5c)]
IC50 [1]: 13.2 µM
IC50 [2]: 3.35 µM

COc1cc(CNCCCCCCNCc2cc(OC)c3c(c2)OCO3)cc2c1OCO2 [N1,N6-bis((7-methoxybenzo[d][1,3]dioxol-5-yl)methyl)hexane-1,6-diamine (5d)]
IC50 [1]: 9.78 µM
IC50 [2]: 2.07 µM

COc1cc(CNCCCCCCCNCc2cc(OC)c3c(c2)OCO3)cc2c1OCO2 [N1,N7-bis((7-methoxybenzo[d][1,3]dioxol-5-yl)methyl)heptane-1,7-diamine (5e)]
IC50 [1]: 4.24 µM
IC50 [2]: 3.02 µM

COc1cc(CNCCCCCCCCCNCc2cc(OC)c3c(c2)OCO3)cc2c1OCO2 [N1,N9-bis((7-methoxybenzo[d][1,3]dioxol-5-yl)methyl)nonane-1,9-diamine (5g)]
IC50 [1]: 2.76 µM
IC50 [2]: 5.14 µM
